In EP4793271A1, “NEUROPROTECTIVE AGENT” (National Center of Neurology and Psychiatry, priority 2023, dated 2025):

How the values were obtained:
[1] = system: primary cultured cells of mouse fetus-derived dorsal root ganglia (DRGs); test: Suppression of axonal degeneration after axotomy in DRG explant culture; format: cell-based; settings: minimum concentration at which axonal degeneration was suppressed (DI 0.3 or less), 24 hours after axotomy; for minimal effective concentration: Mus musculus, read-out: Evaluation on protection against degeneration
Description: The compound of the present invention was studied for its protective effect against axonal injury using primary cultured cells of mouse fetus-derived dorsal root ganglia (DRGs).
DRGs were collected from a fetus derived from an ICR mouse (13.5 days of pregnancy). DRGs were cultured using a plate coated by incubation with 0.1 mg/mL poly-L-lysine at 4°C for 24 hours or longer, washing with PBS, and then incubation with 2.5 µg/mL Cultrex Mouse Laminin I at 37°C for 4 to 6 hours.
One of DRGs collected was plated to each well of the coated 24-well plate. The DRG was cultured in a nicotinamide-free medium for neuron (supplemented with 10% FBS, 1 mM glutamine, 50 ng/mL NGF2.5S, and penicillin-streptomycin) for 24 hours at maximum from the start of culture and then cultured in a nicotinamide-free medium for neuron (supplemented with 2% MACS NeuroBrew-21, 50 ng/mL NGF2.5S, 1% Glutamax, 20 µM uridine, 20 µM 5-fluoro-2'-deoxyuridine, and penicillin-streptomycin) for 7 to 8 days.
The nicotinamide-free medium for neuron was prepared so as to have the same constituents as those of the composition published in a previously reported paper (Brewer et al., J. Neuroscience Research 35: 567-576) except for nicotinamide with reference to this composition.
The test compound is dissolved in DMSO and added to cells such that the final concentration of DMSO is 0.1% (1000-fold dilution). 10 mM, 1 mM, 100 µM, 10 µM, 1 µM, and 100 nM samples of the test compound are prepared and added at a 1000-fold dilution to cells.
Axotomy was carried out by scooping out a cell body portion of the cultured DRG with a chip for a micropipette. The test compound was added at the following concentrations (final concentration: 10 µM, 1 µM, 100 nM, 10 nM, 1 nM, and 100 pM) within 30 minutes after axotomy. The compound was evaluated for its protective effect against axonal degeneration by imaging (Leica DMIL microscope, 20× objective lens) the state of neurites 24 hours after axotomy and evaluating the degree of degeneration. The degree of degeneration was quantified using a program uniquely developed using the R language. A degeneration index (DI) was used as an indicator for the degree of degeneration, and the ratio of the area of a fragmented axon to the total area of axons was calculated as defined in the equation of Expression 2. Suppressed axonal degeneration was evaluated when the value of DI was 0.3 or less. The minimum concentration at which axonal degeneration was suppressed was determined for each compound. Degeneratioin index (DI) = (Degenerated axons)/(All axons) [formula]
The axonal protective activity was evaluated as A ≤ 0.01 µM, 0.01 µM < B ≤ 0.1 µM, and 0.1 µM < C ≤ 1 µM depending on the minimum concentration at which axonal degeneration was suppressed.

hSARM1 = biological target: T1, hSARM1 (Homo sapiens, UniProt Q6SZW1); test: Human SARM1 activity measurement in HEK293 cells transiently transfected with ΔN-hSARM1 (PC6 fluorescent probe); format: cell-based; parameters: expressed in transfected cells; host or cells: HEK293, pcDNA3 expression vector; settings: inhibition rate; compound 30 µM; PC6 50 µM; HEK293 cells expressing ΔN-hSARM1; approximately 48 hours from transfection; read-out: Evaluation on hSARM1 inhibitory
T1 sequence (Q6SZW1 28-724): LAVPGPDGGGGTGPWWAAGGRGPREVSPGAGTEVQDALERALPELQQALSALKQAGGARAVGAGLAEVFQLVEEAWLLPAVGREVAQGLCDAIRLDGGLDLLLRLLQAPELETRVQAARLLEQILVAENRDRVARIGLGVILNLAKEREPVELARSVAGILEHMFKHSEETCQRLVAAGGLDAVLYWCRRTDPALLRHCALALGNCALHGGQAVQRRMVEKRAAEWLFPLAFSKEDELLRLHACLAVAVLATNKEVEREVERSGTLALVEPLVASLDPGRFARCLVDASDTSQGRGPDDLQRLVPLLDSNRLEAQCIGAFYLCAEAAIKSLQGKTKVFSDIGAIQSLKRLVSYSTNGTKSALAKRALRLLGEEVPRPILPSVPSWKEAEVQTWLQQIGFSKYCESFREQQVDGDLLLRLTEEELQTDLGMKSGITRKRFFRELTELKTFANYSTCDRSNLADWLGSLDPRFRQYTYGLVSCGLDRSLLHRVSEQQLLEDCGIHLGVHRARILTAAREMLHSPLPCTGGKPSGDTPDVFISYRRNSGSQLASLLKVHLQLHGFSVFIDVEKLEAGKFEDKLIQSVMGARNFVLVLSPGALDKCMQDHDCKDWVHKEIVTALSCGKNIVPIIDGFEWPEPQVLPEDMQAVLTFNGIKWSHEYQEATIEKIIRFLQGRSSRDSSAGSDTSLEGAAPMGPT
Description: HEK293 cells cultured in a prepared medium of nicotinamide-free DMEM (Dulbecco's modified Eagle medium) supplemented with 10% FBS (BioSera), a 1% penicillin-streptomycin solution (FUJIFILM Wako Pure Chemical Corp.), 5 μM nicotinamide were inoculated at approximately 50,000 cells/well to a 96-well microplate, and the cells were cultured at 37°C under 5% CO2, transiently transfected on the next day with a pcDNA3 expression vector containing a DNA sequence (SEQ ID NO: 1) deficient in a mitochondrial targeting sequence encoded by an N-terminal 78-base sequence in cDNA encoding human sterile α- and armadillo-motif-containing protein (hSARM1) using PEI MAX(R) reagent (PolySciences Inc.), and forced to express ΔN-hSARM1 (SEQ ID NO: 2). Approximately 8 hours later, PC6, which reacts as a substrate of SARM1-specific base exchange reaction and functions as a fluorescent probe, was added thereto at a final concentration of 50 μM, and intracellular hSARM1 activity was measured (Li et al, eLife 2021 10: e67381). A compound for inhibitory activity evaluation was added at a final concentration of 30 μM at the same time with PC6, while dimethyl sulfoxide (Nacalai Tesque Inc.) was added to samples of a control group at the same time with PC6. The cells were incubated at 37°C under 5% CO2 for approximately 48 hours from transfection, followed by fluorescent signal measurement using SpectraMax M2 (Molecular Devices) (excitation: 405 nm, fluorescence: 525 nm, fluorescence cutoff: 515 nm). Results of this screening are reported as an inhibition rate (%) relative to a negative control defined as follows by using fluorescence intensity measured from a control group without transfection with ΔN-hSARM1 as a background whereas using fluorescence intensity measured from a control group transfected with ΔN-hSARM1 as the negative control. Inhibitory rate (%) = 100-(([…]-Background))/((Signalofthenegativecontrol-Background)) × 100 [formula] The nicotinamide-free medium was prepared so as to have the same composition as that of DMEM having known composition which is generally used in the art except for nicotinamide. […]

inhibition at 30 µM (hSARM1) | Structure (SMILES) | Evaluation on protection against degeneration [1] | minimal effective concentration [1]
– | O=C(Cc1cccnc1)NCc1ccc(NC(=O)c2ccccc2)nc1 [Compound 141] | C (0.1 µM < C ≤ 1 µM) | –
> 75% | O=C(NCc1ccc(NC(=O)C23CC4CC(CC(C4)C2)C3)nc1)c1cccnc1 [Compound 142] | – | 0.01 to 0.1 µM
> 75% | O=C(Cc1ccc(Cl)cc1)Nc1ccc(CNC(=O)c2cccnc2)cn1 [Compound 145] | – | ≤ 0.01 µM
> 75% | O=C(COc1ccccc1)Nc1ccc(CNC(=O)c2cccnc2)cn1 [Compound 147] | – | ≤ 0.01 µM
> 75% | O=C(Cc1ccccc1C(F)(F)F)Nc1ccc(CNC(=O)c2cccnc2)cn1 [Compound 155] | – | ≤ 0.01 µM
> 75% | O=C(Cc1cccc(C(F)(F)F)c1)Nc1ccc(CNC(=O)c2cccnc2)cn1 [Compound 156] | – | ≤ 0.01 µM
> 10% | CCC(=O)Nc1ccc(CNC(=O)c2cccnc2)cn1 [Compound 157] | A (A ≤ 0.01 µM) | –
> 75% | O=C(CCc1ccc(OC(F)(F)F)cc1)Nc1ccc(CNC(=O)c2cccnc2)cn1 [Compound 170] | – | ≤ 0.01 µM
> 75% | NCc1ccc(C(=O)N2CCC(CCCCNC(=O)/C=C/c3cccnc3)CC2)cc1 [compound 1] | A (A ≤ 0.01 µM) | –
> 75% | O=C(/C=C/c1cccnc1)NCCCCCCN1CCN(CCO)CC1 [compound 3] | – | ≤ 0.01 µM
> 75% | NCCOCCOCCOCCCCCCCCNC(=O)c1cccnc1 [compound 9] | – | ≤ 0.01 µM
> 75% | O=C(/C=C/c1cccnc1)NCCCNC1CCN(C(=O)c2ccccc2)CC1 [compound 12] | – | 0.01 to 0.1 µM
> 75% | O=C(/C=C/c1cccnc1)NCCOCCOc1ccc(CNC(=O)c2ccccc2)cc1 [compound 14] | – | ≤ 0.01 µM
> 75% | O=C(/C=C/c1cccnc1)NCCCOc1cccc(O)c1 [compound 23] | – | ≤ 0.01 µM
> 75% | COCOc1cccc(OCCCNC(=O)/C=C/c2cccnc2)c1 [compound 24] | – | ≤ 0.01 µM
> 75% | O=C(/C=C/c1cccnc1)NCCOCCOc1cccc(O)c1 [compound 26] | – | ≤ 0.01 µM
> 75% | COCOc1cccc(OCCOCCNC(=O)/C=C/c2cccnc2)c1 [compound 29] | – | ≤ 0.01 µM
> 75% | O=C(/C=C/c1cccnc1)Nc1cccc(OC(=O)/C=C/c2cccnc2)c1 [compound 33] | – | 0.01 to 0.1 µM

inhibition at 30 µM (hSARM1) | Structure (SMILES) | Evaluation on protection against degeneration [1] | minimal effective concentration [1]
> 75% | O=C(/C=C/c1cccnc1)NCCCCCCNC(=O)/C=C/c1cccnc1 [compound 38] | – | ≤ 0.01 µM
> 75% | C/C(=C\C(=O)NCCCCCCNC(=O)/C=C(\C)c1cccnc1)c1cccnc1 [compound 42] | – | ≤ 0.01 µM
> 50% | O=C(NCCCOc1ccc(CNC(=O)c2cccnc2)cc1)c1cccnc1 [compound 52] | – | ≤ 0.01 µM
> 75% | O=C(/C=C/c1cccnc1)NCCCOc1ccc(CNC(=O)c2cccnc2)cc1 [compound 53] | – | ≤ 0.01 µM
> 75% | O=C(NCCOCCOc1ccc(CNC(=O)c2cccnc2)cc1)c1cccnc1 [compound 54] | – | ≤ 0.01 µM
> 75% | O=C(/C=C/c1cccnc1)NCCOCCOc1ccc(CNC(=O)c2cccnc2)cc1 [compound 55] | – | ≤ 0.01 µM
> 50% | C/C(=C\C(=O)NCCOCCOc1ccc(CNC(=O)c2cccnc2)cc1)c1cccnc1 [compound 56] | – | ≤ 0.01 µM
> 75% | O=C(/C=C/c1cccnc1)Nc1ccc(NC(=O)/C=C/c2cccnc2)cc1 [compound 58] | – | ≤ 0.01 µM
> 75% | O=C(/C=C/c1cccnc1)NCc1ccc(NC(=O)/C=C/c2cccnc2)cc1 [compound 62] | – | ≤ 0.01 µM
> 75% | O=C(/C=C/c1ccccc1)NCc1ccc(CNC(=O)c2cccnc2)cc1 [compound 66] | – | ≤ 0.01 µM
> 75% | C#CCCOc1ccc(C(=O)NCCCCCCNC(=O)c2cccnc2)cc1 [compound 68] | – | ≤ 0.01 µM
> 75% | O=C(/C=C/c1cccnc1)NCCCOCCOCCCNC(=O)/C=C/c1cccnc1 [compound 69] | – | ≤ 0.01 µM
> 75% | O=C(/C=C/c1cccnc1)NCc1ccc(NC(=O)c2ccccc2)nc1 [compound 77] | – | ≤ 0.01 µM
> 75% | O=C(Cc1ccc(C(F)(F)F)cc1)Nc1ccc(CNC(=O)c2cccnc2)cn1 [compound 89] | – | ≤ 0.01 µM
> 50% | O=C(NCc1ccc(NC(=O)C2COC2)cc1)c1cccnc1 [compound 93] | – | 0.01 to 0.1 µM
> 75% | CC(C)(C)OC(=O)N1CC(C(=O)Nc2ccc(CNC(=O)c3cccnc3)cn2)C1 [compound 94] | – | ≤ 0.01 µM
> 75% | O=C(Nc1ccc(CCc2ccc(NC(=O)c3cccnc3)cc2)cc1)c1cccnc1 [compound 101] | – | ≤ 0.01 µM
